# Data from patent US20160199392A1, “METHOD FOR INDIVIDUALIZED DRUG THERAPY” (Autotelic LLC, priority 2015, published 2016).
# Marks after values point to notes of the source that are not given here.
# Tests used:
# [1] = system: Signs and Symptoms of Osteoarthritis; conditions: cited from earlier work
# [2] = Combined plots / meta analysis of published pharmacokinetic data; type: in vivo, patients
# Procedure: Accordingly, the dose proportionality may not be as is described by the package insert for Celebrex®. As a result of the failure to determine and pursue target PK ranges, in some instances patients receiving 100 mg patients may not get enough of the drug and the 200 mg patients may receive too much of the drug.
# In other words, the most efficacious celecoxib dosage is highly individualized among the elderly. Unexpectedly, elderly here is defined as patients greater than >40 or >50, not the usually definition of elderly (age greater>65).
# Based on the wide range of AUC values, some instances patients receiving 100 mg patients may not get enough of the drug and the 200 mg patients may receive too much of the drug (FIG. 2).
# [3] = system: pain; conditions: 100 mg dose, for the duration of the six week study; cited from earlier work
# [4] = Naproxen group, at 12 weeks, n = 198
SMILES,"Withdrawal due to treatment failure (%) ([1]; Naproxen group, 12 weeks, n = 198)","Patient global assessment condition improved (%) [1, 4]","Patient global assessment condition worsened (%) [1, 4] [%]","Physician's global assessment condition improved (%) [1, 4]","Physician's global assessment condition worsened (%) [1, 4] [%]","Mean +/− SEM Osteoarthritis Severity Index ([1]; Naproxen group, at 12 weeks, scale 0 to 24, negative change indicating improvement)","Mean +/− SEM WOMAC Osteoarthritis Index composite score ([1]; Naproxen group, at 12 weeks, scale 0 to 96, negative change indicating improvement)","variability of PK parameters (AUC) by age group ([2]; applicant's meta analysis, one dose AUC, elderly (>40 or >50) vs younger patients, FIG. 3)","variability of pharmacokinetics ([2]; combined plots of published pharmacokinetic data, FIG. 2, 100 mg and 200 mg doses)",side effects reported ([1]; 100 mg dose compared with 200 mg dose),side effects reported [3]
"COc1ccc2cc([C@H](C)C(=O)O)ccc2c1 [Naproxen, naproxen]",26‡ %,29‡ %,2,33‡ %,1,−3.1 +/− 0.30‡,−11.9 +/− 1.29‡,–,–,–,–
"Cc1ccc(-c2cc(C(F)(F)F)nn2-c2ccc(S(N)(=O)=O)cc2)cc1 [celecoxib, Celecoxib]",–,–,–,–,–,–,–,higher variability than younger patients,unexpectedly high,fewer side effects,fewer side effects
